From patent US5543410A, “Pharmacological use of phthaloylhydrazide derivatives; combination and application thereof” (L.I.M.A.D. Limited, priority 1993, dated 1996)

Columns and labels:
[1] = pharmacokinetics, plasma half-life; format: in vivo
viral hepatitis B = test system: viral hepatitis B
Description: Rectal suppositories containing the drug, which was to be administered in doses of 100 mg per day for ten days, were prescribed for this patient.

[2] = in vivo
[3] = test system: perineal cutaneous melanoma
Description: Localized excision of the tumor was performed, and the group of lymph nodes in the left inguinal region was removed.
This phenomenon was indicative of the onset of recurrence of the tumor. Intramuscular administration of the drug in 100 mg doses was provided on alternating days.
Beginning on the twentieth day, the drug was administered in 100 mg intramuscular doses every day.

[4] = test system: acute intestinal infections
Description: 200 mg of the drug in an isotonic aqueous solution was administered to this patient.

neutrophils = conditions: in vivo (whole blood), NST test
anal adenocarcinoma = test system: anal adenocarcinoma
Description: Kh., a patient who was […], had been diagnosed with an anal adenocarcinoma seven months earlier.
The diagnosis had been verified histologically. The patient cited pain in the anus, constipation, difficulty in defecating, and secretion of mucus and blood from the anus. On account of the patient's categorical refusal to undergo surgery for abdominoperineal excision of the rectum, radiation therapy had been provided in doses of […]. […] Forty days later, the patient underwent another cycle of radiation therapy, with doses of […]. During the next thirty days, the drug was administered in doses of 100 mg every four hours, in the form of rectal suppositories. […] For the next thirty days, the dosage of the drug was increased, and intramuscular administration of 100 mg per day was provided for this patient, along with a rectal suppository (100 mg).

[5] = test system: cancer affecting the left breast, metastatic tumors
Description: During subsequent years, they had undergone radiation therapy and chemotherapy on multiple occasions on account of metastatic tumors.
On account of the severity of the patient's condition, intramuscular administration of the drug in 100 mg doses every two days was initiated.

[6] = test system: acute purulent inflammation (wounds) caused by E. coli and S. aureus; conditions: single administration
Description: (§1) In models corresponding to acute purulent inflammation (wounds) caused by inoculation of a suspension of pathogenic microbes, such as E. coli and S. aureus, pentane production within air exhaled by the respective animals was measured.

[7] = model systems (micellar phase); times less
Description: as §1

[8] = test system: peroxidation of blood plasma
Description: as §1

male rats = conditions: rat, in vivo
Description: Blood pressure levels were tape-recorded, by means of an electrical kymograph.
At the same time, electrocardiograms for the second standard position were recorded, along with frequency and depth of breathing by means of a Morey capsule.

[9] = passage through living membranes / microbial membranes
hemorrhoids = test system: hemorrhoids
Description: Similarly, anal fissures have represented a difficult problem for modern medicine to resolve. In this instance, the inflammatory component is associated with a morphological defect.
The drug was used in the form of suppositories in 0.1 g doses once daily, in order to treat acute hemorrhoids in patients whose ages were from twenty to sixty years.

[10] = test system: inflammation of the mucosae, chronic tonsillitis; assay: inflammation of the mucosae / chronic tonsillitis (gargling); format: in vivo; conditions: gargling solution
macrophages = conditions: in vitro and in vivo; SV-40 affected cancer cells, glioma cultures
[11] = 100 mg per day rectal suppositories
[12] = 100 mg intramuscular on alternating days

Description for autoimmune diseases: Nevertheless, repeated administration of the drug is required in order to accomplish this objective.

Nc1cccc2c(=O)[nH][nH]c(=O)c12
duration of activity in hydrophobic phase of living membranes ([1]; in vivo): remains active for several hours
half-life ([1]; intramuscular and rectal): forty to sixty
half-life within blood plasma ([1]; intravenous): five to fifteen
time to improvement (lethargy, pain disappeared) (viral hepatitis B; [11]): third
time to normal biochemical blood data (viral hepatitis B; [11]): tenth
chronic development of the process (viral hepatitis B; six subsequent months): absence of chronic development of the process
bile pigments reaction (viral hepatitis B; tenth day): negative
ultrasound examination of liver (viral hepatitis B; tenth day): No pathological conditions affecting the liver were observed
symptoms and hepatic functions (viral hepatitis B; volunteers, 2 to 5 mg/kg per day, initial phase of chronic stage): symptoms were eliminated and previously impaired hepatic functions were restored
CL renal [2]: 50 to 80 mL/min
infiltration in the region of the postoperative scar ([3]; 100 mg intramuscular every day, checkup thirty days later): disappearance of infiltration in the region of the postoperative scar was observed
abnormal salivation [3, 12]: On the third day after the commencement of treatment, abnormal salivation began
vomiting and diuresis [3, 12]: vomiting occurred on the fourth day, along with an increase in diuresis
cessation of symptoms (salivation, vomiting, diuresis) ([3]; in vivo): gradually ceased on the thirteenth and fourteenth days
time to improvement, decrease in abdominal pain, cessation of diarrhea ([4]; 200 mg in isotonic aqueous solution): Forty to fifty
fecal cultures for bacillary dysentery and Salmonella ([4]; in vivo): negative
symptoms of intoxication ([4]; one day after admission): all of the symptoms of intoxication had disappeared
rate at which superoxide radicals formed (neutrophils): an increase in the rate at which superoxide radicals formed
tumor size (anal adenocarcinoma; 100 mg every four hours rectal, thirty days, after radiation): reduction of the tumor was observed
reduction of anal tumor in relation to its initial dimensions (anal adenocarcinoma; 100 mg intramuscular per day plus 100 mg suppository, further thirty days): two-thirds
tumor dimensions and intoxication (conclusion) (anal adenocarcinoma; combination with radiation therapy): reduction of the tumor's dimensions was therefore obtained within a brief period and symptoms of intoxication were eliminated
general condition (anal adenocarcinoma; in vivo): an improvement of the patient's general condition was observed
patients in whom subsequent development of pathological processes was prevented (autoimmune diseases; after an initial phase of treatment): 90%
principal symptoms (autoimmune diseases; suppositories, intravenous or intramuscular, repeated): allows alleviation of the principal symptoms of these diseases
intensity of pain ([5]; after first injection, 100 mg intramuscular every two days): the intensity of their pain decreased significantly
general condition ([5]; alternate days intramuscular): a steady improvement in the patient's general condition was observed
urine, urination, perspiration ([5]; in vivo): their urine became more dense, frequent urination began, and their perspiration acquired a rather foul odor
vomiting, stools ([5]; in vivo): vomiting began, and the patient's stools were malodorous
edema ([5]; thirteenth and fourteenth days): had diminished significantly
condition and appetite ([5]; twentieth day): the patient's condition improved, and their appetite was restored
pentane level attained [6]: until a normal level was attained
time to reduction in pentane in exhaled air [6]: thirty to sixty
antioxidant effectiveness less than previously identified antioxidants [7]: thirty to fifty
antioxidant effectiveness versus known antioxidants ([8]; blood plasma): significantly superior to known antioxidants such as dibunol, alphatocopherol, and superoxydismutaze (SOD)
increase in retardation constant for peroxidation of blood plasma ([8]; two to five minutes after administration): ten to twelve
average fluctuations in blood pressure levels in comparison with initial levels (male rats): 2.79±0.72
time to return of blood pressure to initial level (male rats): thirty
rise in blood pressure in relation to the initial level (male rats; iv): 1.57±5.93%
passage through the hydrophobic phase of living membranes [9]: easily passing through the hydrophobic phase of living membranes
recovery (hemorrhoids; 0.1 g once daily): The patients recovered fully
time until inflammatory process and enlargement of hemorrhoidal nodes disappeared (hemorrhoids; 0.1 g once daily): fifth
time until anal pain ceased (hemorrhoids; 0.1 g suppositories once daily): Seventeen to thirty
time to alleviation of pain syndrome (hemorrhoids; rectal administration): thirty
inflammatory process and edema (hemorrhoids; twelve hours): significant shrinkage of the inflammatory process and reduction of edema in hemorrhoidal nodes
inflammation of the mucosae [10]: favorable results were obtained
transformation of macrophages into killer cells (macrophages): transformation of a certain portion of macrophages into killer cells
expansion of malignant tumors (malignant tumors; increasing doses and frequency): ensures inhibition of the expansion of malignant tumors
tumor dimensions and general condition (malignant tumors; three patients): favorable results represented by reduction of the dimensions of tumors and by an improvement in their general condition
effect in combination with radiation therapy (malignant tumors; total dose of 60 to 90 g): the effect upon its action is intensified
